The data set relates to rodent lifetime carcinogenesis bioassay, tumor incidence TD50. Put plainly: chronic cancer bioassays in animals – CPDB, compiled studies (AID 1745844).

Activity calls are given as the source filed them. How the calls were made is not given here.

As for `NNCCc1ccccc1`, the TD50 (in general, the 50% point of the dose-response relation for the toxic effect studied) runs as follows: (mouse, strain Swiss albino, females, in drinking water, site: blood vessels, lesion: angiosarcoma, dosed 93 weeks, study length 93 weeks) 20.4 mg/kg/day; (mouse, strain Swiss albino, females, in drinking water, site: blood vessels, lesion: several types, types named in the paper, dosed 93 weeks, study length 93 weeks) 14.6 mg/kg/day; (mouse, strain Swiss albino, females, in drinking water, site: fat, lesion: angiosarcoma, dosed 93 weeks, study length 93 weeks) 23.7 mg/kg/day; (mouse, strain Swiss albino, females, in drinking water, site: liver, lesion: several types, types named in the paper, dosed 93 weeks, study length 93 weeks) 278 mg/kg/day; (mouse, strain Swiss albino, females, in drinking water, site: lung, lesion: adenoma, dosed 93 weeks, study length 93 weeks) 25.8 mg/kg/day; (mouse, strain Swiss albino, females, in drinking water, site: lung, lesion: angiosarcoma, dosed 93 weeks, study length 93 weeks) 123 mg/kg/day. Also, the TD50 is, setting by setting: (mouse, strain Swiss albino, females, in drinking water, site: lung, lesion: several types, types named in the paper, dosed 93 weeks, study length 93 weeks) 27.5 mg/kg/day; (mouse, strain Swiss albino, females, in drinking water, site: muscle, lesion: angiosarcoma, dosed 93 weeks, study length 93 weeks) 21.7 mg/kg/day; (mouse, strain Swiss albino, females, in drinking water, site: subcutaneous tissue, lesion: angiosarcoma, dosed 93 weeks, study length 93 weeks) 19.9 mg/kg/day; (mouse, strain Swiss albino, males, in drinking water, site: lung, lesion: adenoma, dosed 99 weeks, study length 99 weeks) 30 mg/kg/day (inactive); (mouse, strain Swiss albino, males, in drinking water, site: lung, lesion: several types, types named in the paper, dosed 99 weeks, study length 99 weeks) 33.1 mg/kg/day (inactive). Besides, the carcinogen call (mouse, strain Swiss albino, males, in drinking water, site: liver, lesion: several types, types named in the paper, dosed 99 weeks, study length 99 weeks) was “negative (inactive)”.
On to `Clc1ccc(Sc2cc(Cl)c(Cl)cc2Cl)cc1`, for which the carcinogen call was “negative (inactive)” (rat, strain Wistar, females, in feed, site: liver, lesion: one or several types, types not named, dosed 104 weeks, study length 104 weeks); “negative (inactive)” (rat, strain Wistar, females, in feed, site: liver, lesion: one or several types, types not named, dosed 116 weeks, study length 116 weeks); “negative (inactive)” (rat, strain Wistar, males, in feed, site: liver, lesion: one or several types, types not named, dosed 104 weeks, study length 104 weeks). Moreover, the TD50 (rat, strain Wistar, males, in feed, site: liver, lesion: hepatoma, dosed 116 weeks, study length 116 weeks) was 4590 mg/kg/day (inactive).
With `C=CN1CCCC1=O`, the TD50 is 6.12 mg/kg/day (rat, strain Charles River CD (Sprague-Dawley), females, inhaled, site: any site (literature study), lesion: malignant tumor, dosed 104 weeks, study length 104 weeks); 120 mg/kg/day (rat, strain Charles River CD (Sprague-Dawley), females, inhaled, site: larynx, lesion: squamous-cell carcinoma, dosed 104 weeks, study length 104 weeks); 12.3 mg/kg/day (rat, strain Charles River CD (Sprague-Dawley), females, inhaled, site: liver, lesion: hepatocellular carcinoma, dosed 104 weeks, study length 104 weeks); 120 mg/kg/day (rat, strain Charles River CD (Sprague-Dawley), females, inhaled, site: nasal cavity, olfactory epithelium, lesion: adenocarcinoma, dosed 104 weeks, study length 104 weeks); 19.8 mg/kg/day (rat, strain Charles River CD (Sprague-Dawley), females, inhaled, site: nasal cavity, respiratory epithelium, lesion: adenoma, dosed 52 weeks, study length 52 weeks); 20.4 mg/kg/day (rat, strain Charles River CD (Sprague-Dawley), females, inhaled, site: nasal cavity, respiratory epithelium, lesion: adenoma, dosed 104 weeks, study length 104 weeks). Further, the TD50 by setting is: (rat, strain Charles River CD (Sprague-Dawley), males, inhaled, site: any site (literature study), lesion: malignant tumor, dosed 104 weeks, study length 104 weeks) 5 mg/kg/day; (rat, strain Charles River CD (Sprague-Dawley), males, inhaled, site: any site (literature study), lesion: several types, types named in the paper, dosed 104 weeks, study length 104 weeks) 1.99 mg/kg/day; (rat, strain Charles River CD (Sprague-Dawley), males, inhaled, site: larynx, lesion: squamous-cell carcinoma, dosed 104 weeks, study length 104 weeks) 84 mg/kg/day; (rat, strain Charles River CD (Sprague-Dawley), males, inhaled, site: liver, lesion: hepatocellular carcinoma, dosed 104 weeks, study length 104 weeks) 12 mg/kg/day; (rat, strain Charles River CD (Sprague-Dawley), males, inhaled, site: nasal cavity, olfactory epithelium, lesion: adenocarcinoma, dosed 104 weeks, study length 104 weeks) 32.9 mg/kg/day; (rat, strain Charles River CD (Sprague-Dawley), males, inhaled, site: nasal cavity, respiratory epithelium, lesion: adenoma, dosed 52 weeks, study length 52 weeks) 8.56 mg/kg/day. Moreover, where the note is “rat, strain Charles River CD (Sprague-Dawley), males, inhaled, site: nasal cavity, respiratory epithelium, lesion: adenoma, dosed 104 weeks, study length 104 weeks”, the TD50 was 11.7 mg/kg/day.
Turning to `O=[N+]([O-])c1ccc(-c2cnc3ccccn23)o1`, the carcinogen call by setting is: (mouse, strain CTM, females, in feed, site: any site (literature study), lesion: several types, types named in the paper, dosed 40 weeks, study length 79 weeks) “positive”; (mouse, strain CTM, females, in feed, site: liver, lesion: hepatoma, dosed 40 weeks, study length 79 weeks) “negative (inactive)”; (mouse, strain CTM, females, in feed, site: lung, lesion: one or several types, types not named, dosed 40 weeks, study length 79 weeks) “negative (inactive)”; (mouse, strain CTM, males, in feed, site: liver, lesion: hepatoma, dosed 40 weeks, study length 73 weeks) “negative (inactive)”. Besides, the TD50 was 21.6 mg/kg/day (mouse, strain CTM, females, in feed, site: several sites, sites named in the paper, lesion: carcinoma, dosed 40 weeks, study length 79 weeks); 117 mg/kg/day (mouse, strain CTM, females, in feed, site: several sites, sites named in the paper, lesion: papilloma, dosed 40 weeks, study length 79 weeks); 781 mg/kg/day (mouse, strain CTM, females, in feed, site: thyroid gland, lesion: lymphosarcoma, dosed 40 weeks, study length 79 weeks); 57.1 mg/kg/day (mouse, strain CTM, males, in feed, site: any site (literature study), lesion: several types, types named in the paper, dosed 40 weeks, study length 73 weeks); 763 mg/kg/day (inactive) (mouse, strain CTM, males, in feed, site: lung, lesion: one or several types, types not named, dosed 40 weeks, study length 73 weeks); 40.1 mg/kg/day (mouse, strain CTM, males, in feed, site: several sites, sites named in the paper, lesion: carcinoma, dosed 40 weeks, study length 73 weeks). Further, the TD50 (mouse, strain CTM, males, in feed, site: several sites, sites named in the paper, lesion: papilloma, dosed 40 weeks, study length 73 weeks) is 65.8 mg/kg/day; the TD50 (rat, strain Wistar, females, in feed, site: any site (literature study), lesion: several types, types named in the paper, dosed 40 weeks, study length 89 weeks) was 15.8 mg/kg/day; the TD50 (rat, strain Wistar, females, in feed, site: kidney, lesion: one or several types, types not named, dosed 40 weeks, study length 89 weeks) was 116 mg/kg/day; the TD50 (rat, strain Wistar, females, in feed, site: liver, lesion: hepatoma, dosed 40 weeks, study length 89 weeks) turned out to be 644 mg/kg/day; the TD50 (rat, strain Wistar, females, in feed, site: mammary tissue, wider than the gland, lesion: one or several types, types not named, dosed 40 weeks, study length 89 weeks) was 33.3 mg/kg/day; the TD50 (rat, strain Wistar, females, in feed, site: several sites, sites named in the paper, lesion: carcinoma, dosed 40 weeks, study length 89 weeks) was 443 mg/kg/day. Moreover, the TD50 is, setting by setting: (rat, strain Wistar, females, in feed, site: several sites, sites named in the paper, lesion: papilloma, dosed 40 weeks, study length 89 weeks) 27.5 mg/kg/day; (rat, strain Wistar, males, in feed, site: any site (literature study), lesion: several types, types named in the paper, dosed 40 weeks, study length 83 weeks) 11.9 mg/kg/day; (rat, strain Wistar, males, in feed, site: kidney, lesion: one or several types, types not named, dosed 40 weeks, study length 83 weeks) 21.4 mg/kg/day; (rat, strain Wistar, males, in feed, site: liver, lesion: hepatoma, dosed 40 weeks, study length 83 weeks) 959 mg/kg/day; (rat, strain Wistar, males, in feed, site: several sites, sites named in the paper, lesion: carcinoma, dosed 40 weeks, study length 83 weeks) 104 mg/kg/day; (rat, strain Wistar, males, in feed, site: several sites, sites named in the paper, lesion: papilloma, dosed 40 weeks, study length 83 weeks) 43.7 mg/kg/day.
As to `Nc1ccc(N)c(Cl)c1`, the TD50 runs as follows: (mouse, strain B6C3F1, females, in feed, site: any site (literature study), lesion: several types, types named in the paper, dosed 96 weeks, study length 104 weeks) 1430 mg/kg/day (inactive); (mouse, strain B6C3F1, females, in feed, site: liver, lesion: hepatocellular adenoma + hepatocellular carcinoma + neoplastic nodule, dosed 96 weeks, study length 104 weeks) 1590 mg/kg/day; (mouse, strain B6C3F1, females, in feed, site: lung, lesion: alveolar/bronchiolar adenoma + alveolar/bronchiolar carcinoma, dosed 96 weeks, study length 104 weeks) 3330 mg/kg/day; (mouse, strain B6C3F1, males, in feed, site: any site (literature study), lesion: several types, types named in the paper, dosed 95 weeks, study length 104 weeks) 4380 mg/kg/day (inactive); (mouse, strain B6C3F1, males, in feed, site: liver, lesion: hepatocellular adenoma + hepatocellular carcinoma + neoplastic nodule, dosed 95 weeks, study length 104 weeks) 1310 mg/kg/day; (rat, strain Fischer 344, females, in feed, site: liver, lesion: hepatocellular adenoma + hepatocellular carcinoma + neoplastic nodule, dosed 105 weeks, study length 105 weeks) 3600 mg/kg/day. Moreover, the TD50 runs as follows: (rat, strain Fischer 344, males, in feed, site: any site (literature study), lesion: several types, types named in the paper, dosed 105 weeks, study length 105 weeks) 244 mg/kg/day (inactive); (rat, strain Fischer 344, males, in feed, site: liver, lesion: hepatocellular adenoma + hepatocellular carcinoma + neoplastic nodule, dosed 105 weeks, study length 105 weeks) 665 mg/kg/day. Further, the carcinogen call (rat, strain Fischer 344, females, in feed, site: any site (literature study), lesion: several types, types named in the paper, dosed 105 weeks, study length 105 weeks) is “negative (inactive)”.
